Measurements reported in ChEMBL document CHEMBL1649229, “Efficacy of high doses of daptomycin versus alternative therapies against experimental foreign-body infection by methicillin-resistant Staphylococcus aureus” (Antimicrob Agents Chemother, 2009).
The source made the active and inactive calls. No cut-off for these calls is given here.

Key:
Staphylococcus aureus [1] = experiment: Bactericidal activity against log-phase methicillin-resistant Staphylococcus aureus HUSA 304 after 24 hrs by time kill analysis in presence of 50 mg/L calcium ions; type: functional; details: HUSA 304, 24 h
Staphylococcus aureus [2] = experiment: Bactericidal activity against stationary-phase methicillin-resistant Staphylococcus aureus HUSA 304 after 24 hrs by time kill analysis in presence of 50 mg/L calcium ions; type: functional; details: HUSA 304, 24 h
Staphylococcus aureus [3] = experiment: Antimicrobial activity against methicillin-resistant Staphylococcus aureus HUSA 304 infected in Wistar rat assessed as decrease in bacterial load in tissue cage fluid at 50 mg/kg, ip administered every 12 hrs for 7 days measured on day 8 post treatment; type: functional; details: route intraperitoneal
Staphylococcus aureus [4] = experiment: Antimicrobial activity against methicillin-resistant Staphylococcus aureus HUSA 304 infected in Wistar rat assessed as decrease in bacterial load in tissue cage fluid at 50 mg/kg, ip administered every 12 hrs for 7 days measured on day 11 post treatment; type: functional; details: route intraperitoneal
Staphylococcus aureus [5] = experiment: Antimicrobial activity against log-phase methicillin-resistant Staphylococcus aureus HUSA 304 assessed as resistant bacteria in tissue cage fluid selected on 4 ug/ml of compound measured on day 8 post treatment; type: functional, organism-based
Staphylococcus aureus [6] = experiment: Antimicrobial activity against log-phase methicillin-resistant Staphylococcus aureus HUSA 304 assessed as resistant bacteria on coverslip selected on 4 ug/ml of compound measured on day 11 post treatment; type: functional, organism-based
Staphylococcus aureus [7] = experiment: Antimicrobial activity against log-phase methicillin-resistant Staphylococcus aureus HUSA 304 assessed as resistant bacteria in tissue cage fluid selected on 4 ug/ml of compound measured on day 11 post treatment; type: functional, organism-based

| Structure (SMILES) | MBC (Staphylococcus aureus [1]) [µg/mL] | MBC (Staphylococcus aureus [2]) [µg/mL] | log10cfu (Staphylococcus aureus [3]) | log10cfu (Staphylococcus aureus [4]) | Activity (Staphylococcus aureus [5]) | Activity (Staphylococcus aureus [6]) | Activity (Staphylococcus aureus [7]) |
| --- | --- | --- | --- | --- | --- | --- | --- |
| CN[C@H](CC(C)C)C(=O)N[C@H]1C(=O)N[C@@H](CC(N)=O)C(=O)N[C@H]2C(=O)N[C@H]3C(=O)N[C@H](C(=O)N[C@H](C(=O)O)c4cc(O)cc(O)c4-c4cc3ccc4O)[C@H](O)c3ccc(c(Cl)c3)Oc3cc2cc(c3O[C@@H]2O[C@H](CO)[C@@H](O)[C@H](O)[C@H]2O[C@H]2C[C@](C)(N)[C@H](O)[C@H](C)O2)Oc2ccc(cc2Cl)[C@H]1O [VANCOMYCIN] | 4 | > 32 | – | – | – | – | – |
| CC(=O)NC[C@H]1CN(c2ccc(N3CCOCC3)c(F)c2)C(=O)O1 [LINEZOLID] | > 32 | > 32 | 1.06 | 0.93 | Active | Active | Active |
